From patent US10954252B1, “Inhibitors of human immunodeficiency virus replication” (ViiV HEALTHCARE UK (NO.5) LIMITED, priority 2017, dated 2021) come the findings set out here.

A short description of data set [1]: Stereoisomer interconversion on storage in MeOH at ambient condition. Type of data set: physicochemical. The note with it: stored in MeOH at ambient condition.
Data set [2] concerns recombinant NL4-3 virus (nef section replaced with Renilla luciferase gene) in MT-2 cells. Briefly: HIV cell culture assay (antiviral activity, luciferase readout). The note with it: MT-2 cells infected for 4-5 days with recombinant NL4-3 luciferase virus. Type of data set: cell-based. A digest of the protocol: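 NL4-3 reporter virus carrying Renilla luciferase in place of part of nef, produced in 293T cells, was used to infect MT-2 cells for 4-5 days with serial compound dilutions. Luciferase activity was read with a live-cell substrate; EC50 derived from the median effect equation.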

Data set [3] can be described thus: Compound cytotoxicity, XTT-based colorimetric assay. In kind it is cell-based. The settings on record: human, uninfected MT2 cells, Table 1, day 4, XTT. A digest of the protocol:
(§1)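 CC50 from uninfected MT2 cells run under the antiviral-assay protocol without virus. Viability read on day 4 by XTT colorimetric assay.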

The test system of the next data set is uninfected MT2 cells. Described as above. Type of data set: cell-based. The settings on record: Table 1a, day 4, XTT. The method, boiled down: as §1

Bounds are passed on as bounds.

For the molecule `Cn1nc(NS(C)(=O)=O)c2c(Cl)ccc(-n3c(C(Cc4cc(F)cc(F)c4)NC(=O)Cn4nc(C(F)F)c5c4C(F)(F)[C@@H]4C[C@H]54)nc4nc(C(F)(F)F)ccc4c3=O)c21` (mixture of isomers) [Example 11.1, N—((S)-1-(3-(4-chloro-1-methyl-3-(methylsulfonamido)-1H-indazol-7-yl)-4-oxo-7-(trifluoromethyl)-3,4-dihydropyrido[2,3-d]pyrimidin-2-yl)-2-(3,5-difluorophenyl)ethyl)-2-((3bS,4aR)-3-(difluoromethyl)-5,5-difluoro-3b,4,4a,5-tetrahydro-1H-cyclopropa[3,4]cyclopenta[1,2-c]pyrazol-1-yl)acetamide], the “conversion to another stereoisomer on storage” value (“conversion” below) in data set [1] is on record as “one of the isomers in Example 11.1 converts to Example 11.2”. In addition, in data set [2] (Renilla, NL43, Table 1), the half-maximal effective concentration (EC50) was 520 nM. Also, in data set [3], the CC50 at 4 days was greater than 10000 nM.
Turning to `COc1cc(F)c2c(=O)n(-c3ccc(Cl)c4c(NS(C)(=O)=O)nn(C)c34)c([C@H](Cc3cc(F)cc(F)c3)NC(=O)Cn3nc(C(F)F)c4c3C(F)(F)[C@@H]3C[C@H]43)nc2c1` (single isomer, unassigned) [Example 187], the concentration for a half-maximal effect (EC50) in data set [2] (Table 1a) turned out to be 178 nM. Further, the CC50 with uninfected MT2 cells is greater than 1000 nM.
The corresponding values for `COc1cc(F)c2c(=O)n(-c3ccc(Cl)c4c(NS(C)(=O)=O)nn(C)c34)c([C@H](Cc3cc(F)cc(F)c3)NC(=O)Cn3ccc(C4CC4)n3)nc2c1` (single isomer, unassigned) [Example 190] are 42.2 nM and greater than 1000 nM.
In the case of `Cn1nc(NS(C)(=O)=O)c2c(Cl)ccc(-n3c([C@H](Cc4cc(F)cc(F)c4)NC(=O)Cn4ccc(C5CC5)n4)nc4cc(CS(C)(=O)=O)ccc4c3=O)c21` (single isomer, unassigned) [Example 206], the concentration for a half-maximal effect (EC50) in data set [2] (Renilla, NL43, Table 1a) came to 0.64 nM. In the data set on uninfected MT2 cells, this molecule returned a CC50 greater than 1000 nM.
As for `Cn1nc(NS(C)(=O)=O)c2c(Cl)ccc(-n3c([C@H](Cc4cc(F)cc(F)c4)NC(=O)Cn4nc(C(F)F)c5c4C(F)(F)C4CC54)nc4nc(C(F)(F)F)ccc4c3=O)c21` (stereo in doubt) [Example 11.2, N—((S)-1-(3-(4-chloro-1-methyl-3-(methylsulfonamido)-1H-indazol-7-yl)-4-oxo-7-(trifluoromethyl)-3,4-dihydropyrido[2,3-d]pyrimidin-2-yl)-2-(3,5-difluorophenyl)ethyl)-2-((3bS,4aR)-3-(difluoromethyl)-5,5-difluoro-3b,4,4a,5-tetrahydro-1H-cyclopropa[3,4]cyclopenta[1,2-c]pyrazol-1-yl)acetamide], the “conversion” value in data set [1] is “converts slowly to one of the isomers in Example 11.1”. In data set [2] (Renilla, NL43, Table 1), the 50% effective concentration (EC50) was 51 nM. In addition, the half-maximal cytotoxic concentration (CC50) at 4 days in data set [3] was greater than 10000 nM.
In the case of `Cn1nc(NS(C)(=O)=O)c2c(Cl)ccc(-n3c([C@H](Cc4cc(F)cc(F)c4)NC(=O)Cn4nc(C(F)F)c5c4C(F)(F)C4CC54)nc4nc(Cl)ccc4c3=O)c21` (stereo in doubt) [Example 12.2, N—((S)-1-(7-chloro-3-(4-chloro-1-methyl-3-(methylsulfonamido)-1H-indazol-7-yl)-4-oxo-3,4-dihydropyrido[2,3-d]pyrimidin-2-yl)-2-(3,5-difluorophenyl)ethyl)-2-((3bS,4aR)-3-(difluoromethyl)-5,5-difluoro-3b,4,4a,5-tetrahydro-1H-cyclopropa[3,4]cyclopenta[1,2-c]pyrazol-1-yl)acetamide], the “conversion” value in data set [1] was “converts slowly to one of the stereoisomers in Example 12.1”. Moreover, the half-maximal effective concentration (EC50) in data set [2] (Renilla, NL43, Table 1) came out at 42 nM. Further, the CC50 at 4 days in data set [3] is greater than 3300 nM.
For the molecule `CC(C)c1ccc(-c2cc3[nH]ccc3nc2[C@H](Cc2cc(F)cc(F)c2)NC(=O)Cn2nc(C(F)F)c3c2C(F)(F)[C@@H]2C[C@H]32)cn1` [Example 82, 2-((3bS,4aR)-3-(difluoromethyl)-5,5-difluoro-3b,4,4a,5-tetrahydro-1H-cyclopropa[3,4]cyclopenta[1,2-c]pyrazol-1-yl)-N—((S)-2-(3,5-difluorophenyl)-1-(6-(6-isopropylpyridin-3-yl)-1H-pyrrolo[3,2-b]pyridin-5-yl)ethyl)acetamide], in data set [2] (Renilla, NL43, Table 1a), the EC50 is 3.81 nM. Further, the midpoint of cytotoxicity in the data set on uninfected MT2 cells, the CC50, lay at 6310 nM.
